Tests used:
Format in all cases: physicochemical
[1] = Fatigue life of fulgide/fulgimide and chromene compound in polymerized methacrylate plate (Example 15); details: for T1/2 of fulgide or fulgimide compound: 0.05 part
Method: (§1) […] The mixed solution was injected into a mold which was made of a glass plate and a gasket formed of an ethylene-vinyl acetate copolymer, and was heated to a temperature of 35° to 90° C. in an air oven over a period of 20 hours for polymerization. After the polymerization was over, the polymer was withdrawn from the glass plate of the mold.
(§2) The resulting polymerized plate was irradiated with sunlight for 10 minutes. On this occasion, a color tone of said plate was visually observed. In this polymerized plate, the fulgide or fulgimide compound and the chromene compound were measured for fatigue life in the same manner as in Example 9. Further, a color tone of the polymerized plate was visually observed in T1/2 (hrs.) of the fulgide or fulgimide compound.

[2] = Fatigue life of fulgide/fulgimide and chromene compound in polymerized plate with ultraviolet light stabilizer (Example 16)
[3] = Visual color tone of polymerized plate under sunlight (Example 15); details: 0.05 part
Method: as §1, §2

[4] = Photochromic PMMA cast film: initial coloration density, maximum absorption wavelength and fatigue life in xenon fadeometer (Example 9); details: PMMA cast film 0.1 mm; for λmax / Initial color density: xenon light; for Initial color density / T1/2: no stabilizer; for T1/2: time for color density to fall to half of initial value, xenon fadeometer;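 for Initial color density: initial color density is an absorbance value so the % unit is wrong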
Text: The thickness of the cast film was adjusted to 0.1 mm.
(§3) T1/2 is defined as the time required for the color density to decrease to half of its initial value when the film is exposed to the fadeometer.

[5] = Fatigue life of photochromic PMMA cast film with ultraviolet stabilizer, xenon fadeometer (Examples 11-14); details: PMMA film, UV stabilizer Cyasorb UV1084, 0.2 part
Method: One hundred parts by weight of benzene, 10 parts by weight of poly(methyl methacrylate), 0.2 part […] The solution was cast on a slide glass (11.2×3.7 cm) to form a cast film having a thickness of 0.1 mm.
The fatigue life of photochromic film was measured as in Example 9 by a xenon long-life fadeometer (FAL-25AX-HC made by Suga Testing Instrument Co., Ltd.).
Example 11 was repeated except that the fulgimide compound obtained in Example 2 was used instead of fulgimide compound used in Example 11.
Example 11 was repeated except that the fulgimide or fulgide compounds shown in Table 28 were used instead of the fulgimide compounds in Example 11, and Cyasorb UV1084 was used as the ultraviolet stabilizer.

[6] = Durability of poly(allyl diglycol carbonate) lens impregnated with the compound in silicone oil, as in Example 9 (Example 10); parameters: Initial color density: unit not given here; details: silicone oil impregnation
Method: as §3
The solution was impregnated in the surface of a lens composed of poly(allyl diglycol carbonate) at 200° C. for 1 hour. The concentration of the solution was adjusted to 1.0×10^-4 mole/g.

[7] = with chromenes 1/2 (0.015/0.015 part)

Compound: 7'-methoxyspiro(bicyclo[3.3.1]nonane-9,2'-(2H)benzo(f)-chromene) [Chromene compound 2]
- T1/2 of chromene compound ([1]; 0.03 part, with fulgide/fulgimide 2 (0.05 part)): 210 h
- T1/2 of chromene compound ([1]; 0.03 part, with fulgide/fulgimide 21 (0.05 part)): 170 h
- T1/2 of chromene compound ([1]; 0.03 part, with fulgide/fulgimide 36 (0.05 part)): 190 h
- T1/2 of chromene compound ([1]; 0.03 part, with fulgide/fulgimide 45 (0.05 part)): 175 h
- T1/2 of chromene compound ([1]; 0.03 part, with fulgide/fulgimide 54 (0.05 part)): 165 h
- T1/2 of chromene compound ([1]; 0.04 part chromene 2, with fulgide/fulgimide 2/48 (0.025/0.025 part)): 190 h
- T1/2 of chromene compound ([2]; 0.04 part, fulgimide 2 (0.05), Tiniuvin 765 (0.1)): 340 h
- T1/2 of chromene compound ([2]; 0.04 part, fulgimide 2 (0.05), Tinuvin 765 (0.2)): 350 h
- T1/2 of chromene compound ([2]; 0.04 part, fulgimide 2 (0.05), Tinuvin 765 (0.5)): 400 h
- T1/2 of chromene compound ([2]; 0.04 part, fulgimide 2 (0.05), Tinuvin 765 (1.0)): 480 h
- T1/2 of chromene compound ([2]; 0.04 part, fulgimide 2 (0.05), Tinuvin 765 (2.0)): 500 h
- T1/2 of chromene compound ([2]; 0.04 part, fulgimide 2 (0.05), Tinuvin 765 (10.0)): 520 h
- T1/2 of chromene compound ([2]; 0.04 part, fulgimide 2 (0.05), UV Chek AM105 (0.7)): 440 h
- T1/2 of chromene compound ([2]; 0.05 part, fulgimide 2 (0.05), LA-63 (0.5)): 480 h
- T1/2 of chromene compound ([2]; 0.05 part, fulgimide 48 (0.05), Cyasorb UV 1084 (0.6)): 430 h

Compound: COC(=O)C(C)N1C(=O)C2=C(C3CC3(C)C)c3ccoc3C3(C4CCC3(Cl)CC4)C2C1=O (stereo not drawn) [(12)]
- Color tone in T0 ([3]; with chromene 4 (0.08 part)): gray
- Color tone in T1/2 ([3]; with chromene 4 (0.08 part)): gray
- T1/2 of fulgide or fulgimide compound ([1]; with chromene 4 (0.08 part)): 184 h
- λmax [4]: 581 nm
- Initial color density [4]: 0.78%
- T1/2 [4]: 77 h
- T1/2 [5]: 320 h

Compound: CCCCC1CC1C1=C2C(=O)N(C(C)(C)C#N)C(=O)C2C2(c3c(OC)cc(OC)cc31)C1CCC2(CCCC)CC1 (stereo not drawn) [(17)]
- Color tone in T0 ([3]; with chromene 5 (0.03 part)): gray
- Color tone in T1/2 ([3]; with chromene 5 (0.03 part)): gray
- T1/2 of fulgide or fulgimide compound ([1]; with chromene 5 (0.03 part)): 146 h
- λmax [4]: 568 nm
- Initial color density [4]: 0.58%
- T1/2 [4]: 58 h
- T1/2 [5]: 230 h

Compound: CCC(C(=O)C[N+](=O)[O-])N1C(=O)C2=C(C3CC3)c3cc(OC)cc(OC)c3C3(C4CC5CC(C4)CC3C5)C2C1=O (stereo not drawn) [(45)]
- Color tone in T0 ([3]; with chromene 2 (0.03 part)): gray
- Color tone in T1/2 ([3]; with chromene 2 (0.03 part)): light gray
- T1/2 of fulgide or fulgimide compound ([1]; with chromene 2 (0.03 part)): 160 h
- λmax [4]: 579 nm
- Initial color density [4]: 0.54%
- T1/2 [4]: 65 h
- T1/2 [5]: 265 h

Compound: CC1CC1C1=C2C(=O)N(CCCCCc3cccc4ccccc34)C(=O)C2C2(c3sc4c(c31)CCCC4)C1CC3CC(C1)CC2C3 (stereo not drawn) [(48)]
- Color tone in T0 ([3]; with chromene 1 (0.04 part)): gray
- Color tone in T1/2 ([3]; with chromene 1 (0.04 part)): gray
- Color tone in T0 [3, 7]: gray
- Color tone in T1/2 [3, 7]: gray
- T1/2 of fulgide or fulgimide compound ([1]; with chromene 1 (0.04 part)): 154 h
- T1/2 of fulgide or fulgimide compound [1, 7]: 154 h
- T1/2 of fulgide or fulgimide compound ([2]; 0.05 part, chromene 1 (0.04), Spinuvex A-36 (0.6)): 430 h
- T1/2 of fulgide or fulgimide compound ([2]; 0.05 part, chromene 2 (0.05), Cyasorb UV 1084 (0.6)): 420 h
- T1/2 of fulgide or fulgimide compound ([2]; 0.05 part, chromene 3 (0.1), Tinuvin 765 (0.7)): 450 h
- T1/2 of fulgide or fulgimide compound ([2]; 0.05 part, chromene 4 (0.1), UV Check AM101 (0.4)): 440 h
- T1/2 of fulgide or fulgimide compound ([2]; 0.05 part, chromene 5 (0.05), Tinuvin 622 (0.7)): 450 h
- λmax [4]: 588 nm
- Initial color density [4]: 0.75%
- T1/2 [4]: 62 h
- λmax [6]: 590 nm
- Initial color density ([6]; 1.0×10^-4 mole/g): 0.67
- T1/2 ([6]; xenon fadeometer): 65 h

Compound: C1=CC2(CC3CCC2C3)Oc2c1ccc1ccccc21 (stereo not drawn) [Chromene compound 1, Spiro(norbornane-2,2'-(2H)benzo(h)-chromene)]
- T1/2 of chromene compound ([1]; 0.03 part, with fulgide/fulgimide 8 (0.05 part)): 170 h
- T1/2 of chromene compound ([1]; 0.03 part, with fulgide/fulgimide 30 (0.05 part)): 170 h
- T1/2 of chromene compound ([1]; 0.04 part chromene 1, with fulgide/fulgimide 2/48 (0.025/0.025 part)): 190 h
- T1/2 of chromene compound ([1]; 0.04 part, with fulgide/fulgimide 48 (0.05 part)): 148 h
- T1/2 of chromene compound ([2]; 0.03 part, fulgimide 2 (0.05), Irgastab 2002 (0.5)): 480 h
- T1/2 of chromene compound ([2]; 0.04 part, fulgimide 48 (0.05), Spinuvex A-36 (0.6)): 430 h

Compound: CC1=CC2(Oc3ccc4ccccc4c31)C1CCCC2CCC1 (stereo not drawn) [Chromene compound 3, 4'-methylspiro[bicyclo[3.3.1]nonane-9,2'-[2H]benzo[f]chromene]]
- T1/2 of chromene compound ([1]; 0.08 part, with fulgide/fulgimide 10 (0.05 part)): 150 h
- T1/2 of chromene compound ([1]; 0.08 part, with fulgide/fulgimide 44 (0.05 part)): 160 h
- T1/2 of chromene compound ([2]; 0.01 part, fulgimide 2 (0.05), Cyasorb 944 (0.5)): 400 h
- T1/2 of chromene compound ([2]; 0.1 part, fulgimide 48 (0.05), Tinuvin 765 (0.7)): 420 h

Compound: CC1=Cc2c(ccc3ccccc23)OC12CC1CCC2C1 (stereo not drawn) [Chromene compound 4, 3'-methylspiro[norbornane-2,2'-[2H]benzo-[f]chromene]]
- T1/2 of chromene compound ([1]; 0.04 part, with fulgide/fulgimide 24 (0.05 part)): 152 h
- T1/2 of chromene compound ([1]; 0.08 part, with fulgide/fulgimide 12 (0.05 part)): 180 h
- T1/2 of chromene compound ([2]; 0.01 part, fulgimide 2 (0.05), LS-2626 (0.4)): 480 h
- T1/2 of chromene compound ([2]; 0.1 part, fulgimide 48 (0.05), UV Check AM101 (0.4)): 430 h

Compound: CCCCCCCCOc1cccc2c3c(ccc12)C=CC(C)(C)O3 [Chromene compound 5, 2,2-dimethyl-7-octoxy[2H]benzo[h]chromene]
- T1/2 of chromene compound ([1]; 0.03 part, with fulgide/fulgimide 17 (0.05 part)): 120 h
- T1/2 of chromene compound ([1]; 0.04 part, with fulgide/fulgimide 15 (0.05 part)): 192 h
- T1/2 of chromene compound ([1]; 0.07 part, with fulgide/fulgimide 46 (0.05 part)): 155 h
- T1/2 of chromene compound ([2]; 0.05 part, fulgimide 2 (0.05), Mark LA-87 (0.5)): 450 h
- T1/2 of chromene compound ([2]; 0.05 part, fulgimide 48 (0.05), Tinuvin 622 (0.7)): 430 h

— patent US5708063A, “Photochromic compound” (Tokuyama Corporation, priority 1993, dated 1998)
